Data set [1] deals with guinea pig dysphagia model induced by repeated administrations of haloperidol. Nature of the data set: Swallowing reflex (water drinking frequency) in dysphagia model induced by repeated administrations of haloperidol. It counts as in vivo. Conditions: for water drinking frequency (dysphagia improving effect): oral (intragastric).
In a further data set the test system is normal guinea pig. The data set can be described thus: Swallowing reflex in normal guinea pig after local pharyngeal administration of substance P receptor antagonist. The format is in vivo. How it is done:
(§1) To 6 week-old female Hartley guinea pigs (330 to 390 g) habituated for 1 week after receipt, a physiological saline solution, or a haloperidol solution was injected subcutaneously in a dosage of 1 mg/kg approx. every 12 hours twice per day for 7 days. Thereafter, a guinea pig was fixed at extremities, and 500 μL of distilled water was injected over 5 sec through a device to a part just before the pharynx, and the total frequency of swallowing until 10 sec and 30 sec from the injection was measured based on a muscle movement in a pharyngeal site. Thereafter a physiological saline solution, or a haloperidol solution was injected again (1 mg/kg).
FK888 (10 μM, 50 μL/guinea pig), which is a substance P receptor antagonist, was administered locally with a spray device to a pharyngeal site of a guinea pig, and water drinking reflection frequency was measured in the same way as in Experiment 1.

In a further data set the test system is Hartley guinea pigs. The data set can be described thus: Swallowing reflex (water drinking frequency) after repeated administrations of haloperidol. The format is in vivo, guinea pig. The settings on record: haloperidol 1 mg/kg s.c. twice per day for 7 days, compared to physiological saline group. On the procedure: as §1
The measurements were repeated totally 4 times at intervals of 1 min. […] Based on the result, the guinea pig was used as a dysphagia model induced by repeated administrations of haloperidol in the following experiments for evaluation of drug efficacy.

For data set [2], the system named is blood pressure increase by intravenous administration of angiotensin I in a normal rat. Nature of the data set: Blood pressure increase induced by intravenous angiotensin I. Conditions: oral, angiotensin I 300 ng/kg i.v. after 1 hour, SD male rats.
Experimental: The respective dose of a captopril, or lisinopril aqueous solution was administered orally and the blood pressures were measured after 1 hour. Thereafter, angiotensin I was administered intravenously (300 ng/kg) to induce blood pressure increase and a change in the mean blood pressure was measured.
In data set [3] the test system is guinea pig dysphagia model induced by repeated administrations of haloperidol. The data set can be described thus: Swallowing reflex (water drinking frequency) in dysphagia model induced by repeated administrations of haloperidol. It counts as in vivo. Conditions: local spray to pharyngeal mucosa, 100 μL of 50 μM aqueous solution, 2 hours after administration.

Entries after “also recorded” stand apart in the source; their conditions may differ.

`CN(Cc1ccccc1)C(=O)[C@H](Cc1ccc2ccccc2c1)NC(=O)[C@@H]1C[C@@H](O)CN1C(=O)c1cn(C)c2ccccc12` [FK888]: the “lower limit not influencing swallowing reflex” value in data set [1] (100 μL local spray to pharyngeal mucosa) is recorded as 10 nM. Moreover, the “increase in water drinking frequency by lisinopril (50 nM, 100 μL)” value in data set [1] (FK888 10 nM, 100 μL, local spray 15 min after lisinopril administration) is given as “almost completely suppressed”. Also, the “swallowing reflex (water drinking reflection frequency)” value in the data set with normal guinea pig (FK888 10 μM, 50 μL/guinea pig, local spray to pharyngeal site) is recorded as “decrease in swallowing reflex”.

As to `C[C@H](CS)C(=O)N1CCC[C@H]1C(=O)O` [captopril], the water drinking frequency entry in data set [1] (100 μL of 50 μM aqueous solution sprayed to pharyngeal mucosa, 30 min after spray) is reported as “significant increase; also recorded: exhibited an improving effect on dysphagia”; in data set [1] (100 μL of 50 mM aqueous solution sprayed to pharyngeal mucosa, 30 min after spray), “significant increase; also recorded: exhibited an improving effect on dysphagia”. Further, the “water drinking frequency (dysphagia improving effect)” value in data set [1] (same dose as 100 μL of 50 μM aqueous solution, 30 min after administration) was “did not exert an influence”; in data set [1] (same dose as 100 μL of 50 mM aqueous solution, 30 min after administration), “did not exert an influence”. In addition, the “decrease in swallowing reflex by FK888 administration” value in the data set with normal guinea pig (captopril aqueous solution sprayed to pharyngeal site 30 min before FK888) was “suppressed”.

`O=C(CCCN1CCC(O)(c2ccc(Cl)cc2)CC1)c1ccc(F)cc1` [haloperidol]: the water drinking frequency result in the data set on Hartley guinea pigs is “significantly decreased”.

On to `NCCCC[C@H](N[C@@H](CCc1ccccc1)C(=O)O)C(=O)N1CCC[C@H]1C(=O)O` [lisinopril], for which the entries for the “vasopressor reaction by administration of angiotensin I (change in mean blood pressure)” value in data set [2] (100 μL of 5 μM aqueous solution) and in data set [2] (100 μL of 5 mM aqueous solution) were “had no influence” and “suppressed a vasopressor reaction”, respectively. For the same compound, the “dose giving significant increase in water drinking frequency” value in data set [1] (100 μL aqueous solution sprayed to pharyngeal mucosa) was at least 50 nM. Also, the water drinking frequency result in data set [1] (100 μL of 0.5 nM to 500 μM aqueous solution (pH 7.0) sprayed to pharyngeal mucosa) is “dose-dependent increase”; in data set [1] (100 μL of 50 nM aqueous solution sprayed to pharyngeal mucosa, 30 min after administration), “increase in water drinking frequency”. Further, the “water drinking frequency (dysphagia improving effect)” value in data set [1] (same dose as the local administration (100 μL of 50 mM), 2 hours after administration) is recorded as “exerted no influence; also recorded: no dysphagia improving effect was observed”; in data set [3] it was “exhibited an improving effect on dysphagia”.
